Molecules are shown by their SMILES.

Common to all, as to assay: Invitrogen SelectScreen Enzymatic Assay
Assay [1] addresses Phosphatidylinositol 3-kinase regulatory subunit alpha/4,5-bisphosphate 3-kinase catalytic subunit delta isoform (Homo sapiens, UniProt O00329). Here is the method: (§1) The enzymatic assay was performed using the LifeTechnology SelectScreen.
Assay [2] addresses Phosphatidylinositol 4-phosphate 3-kinase C2 domain-containing subunit beta (Homo sapiens, UniProt O00750). How it is done:
as §1

The target of assay [3] is Phosphatidylinositol 4,5-bisphosphate 3-kinase catalytic subunit gamma isoform (Homo sapiens, UniProt P48736). How it is done:
as §1

Assay [4] has as its target Serine/threonine-protein kinase 16 (Homo sapiens, UniProt O75716). Here is the method: as §1
In assay [5] the target is Phosphatidylinositol 3-kinase regulatory subunit alpha/4,5-bisphosphate 3-kinase catalytic subunit alpha isoform (Homo sapiens, UniProt P42336). Here is the method:
as §1

Assay [6] concerns the target Phosphatidylinositol 3-kinase catalytic subunit type 3 (Homo sapiens, UniProt Q8NEB9). Here is the method: as §1
Assay [7] deals with Phosphatidylinositol 4-phosphate 3-kinase C2 domain-containing subunit alpha (Homo sapiens, UniProt O00443). Here is the method: as §1
Phosphatidylinositol 4-phosphate 3-kinase C2 domain-containing subunit alpha, sequence (O00443 whole entry, the tested form may be a part): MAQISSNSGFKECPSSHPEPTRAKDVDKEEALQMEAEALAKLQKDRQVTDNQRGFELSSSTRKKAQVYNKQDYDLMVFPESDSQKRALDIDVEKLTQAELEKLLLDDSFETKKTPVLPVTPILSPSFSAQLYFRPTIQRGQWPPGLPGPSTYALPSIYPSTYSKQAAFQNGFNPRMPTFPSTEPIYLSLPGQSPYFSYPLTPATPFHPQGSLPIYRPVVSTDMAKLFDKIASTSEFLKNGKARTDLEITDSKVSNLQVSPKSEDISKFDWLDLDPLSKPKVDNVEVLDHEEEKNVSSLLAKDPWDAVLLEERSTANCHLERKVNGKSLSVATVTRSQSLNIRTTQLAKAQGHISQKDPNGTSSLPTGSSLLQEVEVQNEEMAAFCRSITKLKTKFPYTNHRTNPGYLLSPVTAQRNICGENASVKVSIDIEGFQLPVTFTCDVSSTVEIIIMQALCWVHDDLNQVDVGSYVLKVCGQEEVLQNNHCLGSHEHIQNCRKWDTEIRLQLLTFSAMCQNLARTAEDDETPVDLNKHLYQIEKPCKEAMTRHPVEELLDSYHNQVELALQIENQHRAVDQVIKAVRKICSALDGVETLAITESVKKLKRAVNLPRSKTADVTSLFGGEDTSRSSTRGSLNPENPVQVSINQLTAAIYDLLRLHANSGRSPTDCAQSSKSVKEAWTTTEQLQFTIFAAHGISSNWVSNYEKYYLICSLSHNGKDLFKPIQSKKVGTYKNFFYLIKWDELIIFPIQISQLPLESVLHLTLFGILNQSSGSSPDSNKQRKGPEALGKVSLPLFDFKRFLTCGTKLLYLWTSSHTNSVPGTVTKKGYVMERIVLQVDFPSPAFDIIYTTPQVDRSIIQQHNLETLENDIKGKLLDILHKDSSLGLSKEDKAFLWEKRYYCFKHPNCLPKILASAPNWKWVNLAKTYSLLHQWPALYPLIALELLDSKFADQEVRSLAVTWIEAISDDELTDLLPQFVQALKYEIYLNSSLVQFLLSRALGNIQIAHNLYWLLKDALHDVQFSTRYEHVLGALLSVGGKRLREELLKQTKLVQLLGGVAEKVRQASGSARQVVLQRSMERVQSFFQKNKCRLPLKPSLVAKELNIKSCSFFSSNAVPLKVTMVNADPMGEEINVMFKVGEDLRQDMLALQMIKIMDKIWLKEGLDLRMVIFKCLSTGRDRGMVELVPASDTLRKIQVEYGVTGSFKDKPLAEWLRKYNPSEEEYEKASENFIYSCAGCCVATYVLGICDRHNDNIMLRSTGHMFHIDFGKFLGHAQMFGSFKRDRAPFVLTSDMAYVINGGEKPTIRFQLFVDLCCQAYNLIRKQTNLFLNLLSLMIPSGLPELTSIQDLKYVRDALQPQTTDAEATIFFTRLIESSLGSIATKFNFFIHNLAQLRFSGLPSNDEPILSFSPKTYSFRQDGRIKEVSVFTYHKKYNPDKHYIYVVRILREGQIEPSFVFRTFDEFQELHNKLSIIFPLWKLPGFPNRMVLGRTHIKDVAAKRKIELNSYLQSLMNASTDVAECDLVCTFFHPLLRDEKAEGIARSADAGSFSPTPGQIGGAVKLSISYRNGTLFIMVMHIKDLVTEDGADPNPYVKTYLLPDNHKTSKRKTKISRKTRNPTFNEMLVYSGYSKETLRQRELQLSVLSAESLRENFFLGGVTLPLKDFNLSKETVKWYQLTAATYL
Assay [8] concerns the target Phosphatidylinositol 4-kinase alpha (Homo sapiens, UniProt P42356). Here is the method:
as §1

Assay [9] addresses Phosphatidylinositol 4-kinase beta (Homo sapiens, UniProt Q9UBF8). How it is done:
as §1

Phosphatidylinositol 4-kinase beta, sequence (Q9UBF8 whole entry): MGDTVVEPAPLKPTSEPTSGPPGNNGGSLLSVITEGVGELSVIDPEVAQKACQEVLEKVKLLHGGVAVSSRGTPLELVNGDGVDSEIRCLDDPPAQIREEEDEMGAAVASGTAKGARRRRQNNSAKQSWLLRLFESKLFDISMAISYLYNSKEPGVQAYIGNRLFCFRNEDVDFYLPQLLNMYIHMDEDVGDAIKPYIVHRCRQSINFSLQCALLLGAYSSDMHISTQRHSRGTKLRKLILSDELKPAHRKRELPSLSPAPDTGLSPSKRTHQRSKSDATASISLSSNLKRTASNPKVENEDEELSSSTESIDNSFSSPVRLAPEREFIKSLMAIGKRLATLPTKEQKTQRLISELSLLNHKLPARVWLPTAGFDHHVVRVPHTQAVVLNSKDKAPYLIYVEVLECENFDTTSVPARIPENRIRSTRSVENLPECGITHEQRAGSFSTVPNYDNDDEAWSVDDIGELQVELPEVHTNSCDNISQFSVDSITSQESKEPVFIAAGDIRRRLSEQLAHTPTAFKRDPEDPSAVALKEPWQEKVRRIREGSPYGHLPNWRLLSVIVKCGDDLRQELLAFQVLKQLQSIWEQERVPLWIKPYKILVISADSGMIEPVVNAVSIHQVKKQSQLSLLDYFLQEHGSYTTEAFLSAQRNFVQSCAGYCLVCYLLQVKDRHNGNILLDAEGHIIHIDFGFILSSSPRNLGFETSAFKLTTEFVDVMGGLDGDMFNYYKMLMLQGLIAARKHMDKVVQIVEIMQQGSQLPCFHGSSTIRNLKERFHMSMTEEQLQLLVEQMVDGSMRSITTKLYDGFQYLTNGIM
Phosphatidylinositol 4-kinase alpha, sequence (P42356 whole entry): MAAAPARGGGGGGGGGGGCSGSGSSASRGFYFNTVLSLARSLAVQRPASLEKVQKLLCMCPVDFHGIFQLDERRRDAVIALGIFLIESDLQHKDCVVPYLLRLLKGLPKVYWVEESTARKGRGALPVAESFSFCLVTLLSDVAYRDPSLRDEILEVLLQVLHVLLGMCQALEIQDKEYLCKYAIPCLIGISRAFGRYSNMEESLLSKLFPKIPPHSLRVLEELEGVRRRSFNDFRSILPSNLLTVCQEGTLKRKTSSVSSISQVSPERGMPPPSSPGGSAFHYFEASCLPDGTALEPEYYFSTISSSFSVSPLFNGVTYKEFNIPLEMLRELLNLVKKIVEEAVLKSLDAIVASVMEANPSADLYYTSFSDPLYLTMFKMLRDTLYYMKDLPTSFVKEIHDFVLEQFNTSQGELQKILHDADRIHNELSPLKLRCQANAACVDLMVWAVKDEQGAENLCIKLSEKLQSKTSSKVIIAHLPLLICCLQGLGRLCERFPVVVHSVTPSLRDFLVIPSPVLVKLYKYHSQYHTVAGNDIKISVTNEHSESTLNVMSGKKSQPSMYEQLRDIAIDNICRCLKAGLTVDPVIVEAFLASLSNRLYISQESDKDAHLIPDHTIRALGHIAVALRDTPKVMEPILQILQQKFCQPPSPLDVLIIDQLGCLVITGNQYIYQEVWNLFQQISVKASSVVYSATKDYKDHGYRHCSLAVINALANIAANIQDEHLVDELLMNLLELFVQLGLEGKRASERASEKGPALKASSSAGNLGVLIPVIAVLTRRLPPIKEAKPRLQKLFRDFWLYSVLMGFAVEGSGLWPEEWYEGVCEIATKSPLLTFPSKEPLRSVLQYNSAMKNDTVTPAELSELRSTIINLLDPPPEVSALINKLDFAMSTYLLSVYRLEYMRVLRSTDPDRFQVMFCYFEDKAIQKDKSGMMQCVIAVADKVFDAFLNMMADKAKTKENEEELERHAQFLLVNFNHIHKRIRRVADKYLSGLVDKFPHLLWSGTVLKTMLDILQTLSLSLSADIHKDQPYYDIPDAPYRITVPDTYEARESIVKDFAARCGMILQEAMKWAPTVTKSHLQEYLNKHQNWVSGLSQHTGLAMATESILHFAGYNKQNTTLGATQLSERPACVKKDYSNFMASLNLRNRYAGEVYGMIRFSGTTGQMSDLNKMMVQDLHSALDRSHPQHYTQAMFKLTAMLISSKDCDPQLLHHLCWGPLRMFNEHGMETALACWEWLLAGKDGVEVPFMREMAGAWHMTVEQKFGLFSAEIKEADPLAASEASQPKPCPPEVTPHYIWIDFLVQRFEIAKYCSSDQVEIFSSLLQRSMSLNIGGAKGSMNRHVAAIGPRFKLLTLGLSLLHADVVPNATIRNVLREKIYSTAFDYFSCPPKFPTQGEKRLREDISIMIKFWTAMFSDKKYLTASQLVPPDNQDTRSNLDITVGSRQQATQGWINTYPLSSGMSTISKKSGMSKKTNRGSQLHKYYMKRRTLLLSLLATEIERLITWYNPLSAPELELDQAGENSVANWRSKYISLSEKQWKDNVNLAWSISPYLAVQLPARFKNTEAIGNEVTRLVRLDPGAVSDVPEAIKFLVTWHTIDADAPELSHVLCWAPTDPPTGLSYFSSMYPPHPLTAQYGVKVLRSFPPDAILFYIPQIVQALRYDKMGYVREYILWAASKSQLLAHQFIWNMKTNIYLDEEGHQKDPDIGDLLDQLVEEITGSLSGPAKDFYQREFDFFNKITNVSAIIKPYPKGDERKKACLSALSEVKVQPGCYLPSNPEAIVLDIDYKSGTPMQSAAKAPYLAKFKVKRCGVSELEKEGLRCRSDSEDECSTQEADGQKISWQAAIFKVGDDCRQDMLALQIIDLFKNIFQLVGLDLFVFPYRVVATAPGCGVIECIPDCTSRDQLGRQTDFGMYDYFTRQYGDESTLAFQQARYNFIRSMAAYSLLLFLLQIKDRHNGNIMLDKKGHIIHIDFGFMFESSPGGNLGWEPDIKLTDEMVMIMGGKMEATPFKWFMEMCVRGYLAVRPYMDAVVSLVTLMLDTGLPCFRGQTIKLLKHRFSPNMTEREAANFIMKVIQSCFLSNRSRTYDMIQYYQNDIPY
Serine/threonine-protein kinase 16, sequence (O75716 whole entry, canonical isoform): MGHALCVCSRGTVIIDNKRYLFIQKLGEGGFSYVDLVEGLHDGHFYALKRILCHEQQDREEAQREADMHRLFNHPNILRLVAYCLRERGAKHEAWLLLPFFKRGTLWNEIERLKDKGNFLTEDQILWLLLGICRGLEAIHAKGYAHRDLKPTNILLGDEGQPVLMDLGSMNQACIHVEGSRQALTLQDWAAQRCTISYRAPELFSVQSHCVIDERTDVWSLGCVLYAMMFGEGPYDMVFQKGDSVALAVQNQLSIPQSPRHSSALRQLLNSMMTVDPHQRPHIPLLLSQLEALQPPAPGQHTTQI

A word on the IC50: it is the concentration that inhibits the measured activity by half. Lower therefore signals higher potency. For `O=c1ccc2cnc3[nH]ccc3c2n1-c1ccc(F)c(O)c1` [STK16-IN-1], the IC50 in assay [1] was determined as 856 nM; in assay [2] it was 9330 nM; in assay [3] it was 867 nM; in assay [4], 295 nM; in assay [5] it was 1070 nM; in assay [6], 7940 nM. The figures for the IC50 in assay [7], in assay [8] and in assay [9] were 4860 nM, greater than 10000 nM and greater than 10000 nM, respectively.
